Data from patent US10640545B2 (THE GOVERNORS OF THE UNIVERSITY OF ALBERTA, priority 2017, dated 2020).
Where a SMILES comes first, the peptide text is derived from it. [ ]: non-standard residue; d: D form. The star is where a group is joined. Phe(4-Br) = N[C@@H](Cc1ccc(Br)cc1)C(=O)O; Palmitoyl = CCCCCCCCCCCCCCCC(=O)*; NMeL = CN[C@@H](CC(C)C)C(=O)O; αMeL = CC(C)C[C@](C)(N)C(=O)O; Nle = CCCC[C@H](N)C(=O)O; Aib = CC(C)(N)C(=O)O

Tests used:
anesthetized mice = assay: Blood pressure assay in anesthetized mice; assay type: in vivo; details: 1.4 μM/kg body weight injected; for blood pressure lowering (hypotensive) effect: SBP, DBP, MABP
Description: Synthetic peptides 8-19 were tested for blood pressure lowering abilities in anesthetized mice. Apelin peptides were injected through […], monitoring blood pressure (BP) and heart rate (HR) over 60 minutes.
Mice were anaesthetized with 1.5% isoflurane/oxygen, and body temperature was monitored and maintained at 36° C. by a heating pad. The aorta was cannulated via the right carotid artery using a PV loop catheter (Model 1.2F from Scisense, Transonic) in order to continuously record arterial blood pressure and heart rate (LabScribe 2.0, Scisense). […] Results are reported as systolic blood pressure (SBP), diastolic blood pressure (DBP), mean arterial blood pressure (MABP) and heart rate (HR).
Apelin peptides 11, 56-59 as well as the KLKB1-cleavage fragments 54 and 55 were tested for blood pressure lowering abilities in anesthetized mice.
Mice were anesthetized with 1.5% isoflurane/oxygen, and body temperature was monitored and maintained at 36° C. by a heating pad. The aorta was cannulated via the right carotid artery using a PV loop catheter (model 1.2F from Scisense, Transonic) in order to continuously record arterial blood pressure and heart rate (LabScribe 2.0, Scisense). Compounds 11, and 54-59 or 55-59 (1.4 μM/kg body weight) or the same volume of saline was injected via the right jugular vein. Results are reported as systolic blood pressure (SBP), diastolic blood pressure (DBP), mean arterial blood pressure (MABP), and heart rate (HR) shown in FIGS. 15A-D.
Apelin peptides were delivered systemically via the right internal jugular vein while blood pressure (BP) and heart rate (HR) were continuously monitored in the aorta cannulated via the right carotid artery. All N-terminally extended apelin peptides, except 58, show pronounced and time-stable blood pressure lowering effects (FIGS. 15a-d). […] This correlates with the results obtained from the Ca^2+ mobilization assay.

in vitro = details: human, plasma

Row | SMILES | blood pressure lowering (hypotensive) effect (anesthetized mice) | remaining at 0.5 h, 80 µM (in vitro) | remaining at 1 h, 80 µM (in vitro) | effect on heart rate (HR) (anesthetized mice)
1 | CCCCCCCCCCCCCCCC(=O)N[C@@H](CCCCN)C(=O)N[C@@H](Cc1ccccc1)C(=O)N[C@@H](CCCNC(=N)N)C(=O)N[C@@H](CCCNC(=N)N)C(=O)N[C@@H](CCC(N)=O)C(=O)N[C@@H](CCCNC(=N)N)C(=O)N1CCC[C@H]1C(=O)N[C@@H](CCCNC(=N)N)C(=O)N[C@@H](CC(C)C)C(=O)N[C@@H](CO)C(=O)N[C@@H](Cc1c[nH]cn1)C(=O)N[C@@H](CCCCN)C(=O)NCC(=O)N1CCC[C@H]1C(=O)N[C@@H](CCCC)C(=O)NC(C)(C)C(=O)N[C@@H](Cc1ccc(Br)cc1)C(=O)O [Peptide 56] (Palmitoyl-KFRRQRPRLSHKGP[Nle][Aib][Phe(4-Br)]-OH; C-terminus assumed) | more potent than apelin-17 (2) and apelin-17A2 (5) |  |  | 
2 | CCCC[C@H](NC(=O)[C@@H]1CCCN1C(=O)CNC(=O)[C@H](CCCCN)NC(=O)[C@H](Cc1c[nH]cn1)NC(=O)[C@H](CO)NC(=O)[C@H](CC(C)C)NC(=O)[C@H](CCCNC(=N)N)NC(=O)[C@@H]1CCCN1C(=O)[C@H](CCCNC(=N)N)NC(=O)[C@H](CCC(N)=O)NC(=O)[C@@H](N)CCCNC(=N)N)C(=O)NC(C)(C)C(=O)N[C@@H](Cc1ccc(Br)cc1)C(=O)O [Peptide 54] (H-RQRPRLSHKGP[Nle][Aib][Phe(4-Br)]-OH; C-terminus assumed) | inactive or nearly so |  |  | 
3 | CCCC[C@H](NC(=O)[C@@H]1CCCN1C(=O)CNC(=O)[C@H](CCCCN)NC(=O)[C@H](Cc1c[nH]cn1)NC(=O)[C@H](CO)NC(=O)[C@](C)(CC(C)C)NC(=O)[C@H](CCCNC(=N)N)NC(=O)[C@@H]1CCCN1C(=O)[C@H](CCCNC(=N)N)NC(=O)[C@H](CCC(N)=O)NC(=O)[C@H](CCCNC(=N)N)NC(=O)[C@H](CCCNC(=N)N)NC(=O)[C@H](Cc1ccccc1)NC(=O)[C@@H](N)CCCCN)C(=O)NC(C)(C)C(=O)N[C@@H](Cc1ccc(Br)cc1)C(=O)O [Peptide 15] (H-KFRRQRPR[αMeL]SHKGP[Nle][Aib][Phe(4-Br)]-OH; N-terminus and C-terminus assumed) | without inducing any vasoactive effects | 77 ± 4% | 48 ± 7% | had an impact on the heart rate
4 | CCCC[C@H](NC(=O)[C@@H]1CCCN1C(=O)CNC(=O)[C@H](CCCCN)NC(=O)[C@H](Cc1c[nH]cn1)NC(=O)[C@H](CO)NC(=O)[C@H](CC(C)C)N(C)C(=O)[C@H](CCCNC(=N)N)NC(=O)[C@@H]1CCCN1C(=O)[C@H](CCCNC(=N)N)NC(=O)[C@H](CCC(N)=O)NC(=O)[C@@H](N)CCCNC(=N)N)C(=O)NC(C)(C)C(=O)N[C@@H](Cc1ccc(Br)cc1)C(=O)O [Peptide 55, Arg-Gln-Arg-Pro-Arg-NMeLeu-Ser-His-Lys-Gly-Pro-Nle-Aib-paraBrPhe] (H-RQRPR[NMeL]SHKGP[Nle][Aib][Phe(4-Br)]-OH; C-terminus assumed) | inactive or nearly so |  |  | 
